From patent publication US5665745A, “Heterocyclic compounds and their preparation and use” (Eli Lilly and Company, priority 1995, dated 1997)
Where two headings read alike, the source gives them in different places.

Columns and labels:
[1] = target: muscarinic acetylcholine receptors; test: inhibition of specific binding of ^3 H-Oxotremorine-M (^3 H-Oxo); set-up: species or system rat (male Wistar; conditions: ^3 H-Oxotremorine 1.0 nM, rat cortex, 30 min. at 25° C.
Description: The pharmacological properties of the compounds of the invention can be illustrated by determining their capability to inhibit the specific binding of ^3 H-Oxotremorine-M (^3 H-Oxo). Birdsdall N. J. M., Hulme E. C., and Burgen A. S. V. (1980). "The Character of Muscarinic Receptors in Different Regions of the Rat Brain" Proc. Roy. Soc. London (Series B) 207,1.
^3 H-Oxo labels muscarinic receptor in the CNS (with a preference for agonist domains of the receptors). Three different sites are labeled by ^3 H-Oxo. […] Using the present experimental conditions only the high and medium affinity sites are determined.
The inhibitory effects of compounds on ^3 H-oxo binding reflects the affinity for muscarinic acetylcholine receptors.
(§1) All preparations are performed at 0°-4° C. unless otherwise indicated. Fresh cortex (0.1-1 g) from male Wistar rats (150-250 g) is homogenized for 5-10 seconds in 10 mL 20 nM Hepes pH: 7.4, with an Ultra-Turrax homogenizer. The homogenizer is rinsed with 10 mL of buffer and the combined suspension centrifuged for 15 min. at 40,000×g. The pellet is washed three times with buffer. In each step the pellet is homogenized as before in 2×10 mL of buffer and centrifuged for 10 min. at 40,000×g.
The final pellet is homogenized in 20 mM Hepes pH: 7.4 (100 mL per g of original tissue) and used for binding assay. Aliquots of 0.5 mL is added 25 μL of test solution and 25 μL of ^3 H-Oxotremorine (1.0 nM, final concentration) mixed and incubated for 30 min. at 25° C. Non-specific binding is determined in triplicate using arecoline ([…], final concentration) as the test substance. After incubation samples are added 5 mL of ice-cold buffer and poured directly onto Whatman GF/C glass fiber filters under suction and immediately washed 2 times with 5 mL of ice-cold buffer. The amount of radioactivity on the filters are determined by conventional liquid scintillation counting. Specific binding is total binding minus non specific binding.
Test substances are dissolved in 10 mL water (if necessary heated on a steam-bath for less than 5 min.) at a concentration of 2.2 mg/mL. […] The test value will be given as IC50 (the concentration (nM) of the test substance which inhibits the specific binding of ^3 H-oxo by 50%). IC50 =(applied test substance concentration) x(Cx /Co -Cx)nM where Co is specific binding in control assays and Cx is the specific binding in the test assay. (The calculations assume normal mass-action kinetics).

[2] = target: T1, muscarinic receptors (M1 -site, pirenzepine sensitive site) (Rattus norvegicus, UniProt P08482); test: inhibition of ^3 HPRZ (pirenzepine, [N-methyl-^3 H]) binding to rat cerebral cortex membranes; set-up: species or system rat (male Wistar
T1 construct: from tissue; host or cells: cerebral cortex membranes of male Wistar rats
T1 sequence (P08482 1-460): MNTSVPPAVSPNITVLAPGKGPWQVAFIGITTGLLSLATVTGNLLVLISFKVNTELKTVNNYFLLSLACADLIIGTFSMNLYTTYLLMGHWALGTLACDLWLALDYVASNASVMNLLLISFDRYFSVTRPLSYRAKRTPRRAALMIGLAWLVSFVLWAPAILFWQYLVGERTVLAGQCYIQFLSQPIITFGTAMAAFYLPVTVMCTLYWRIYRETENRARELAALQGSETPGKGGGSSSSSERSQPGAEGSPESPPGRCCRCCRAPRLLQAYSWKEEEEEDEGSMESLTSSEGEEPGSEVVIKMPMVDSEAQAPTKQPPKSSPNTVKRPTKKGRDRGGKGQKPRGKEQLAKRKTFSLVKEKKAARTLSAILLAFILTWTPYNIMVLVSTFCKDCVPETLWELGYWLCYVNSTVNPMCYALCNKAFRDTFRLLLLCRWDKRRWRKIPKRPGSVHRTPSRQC
Protocol: Furthermore the pharmacological properties of the compounds of the invention can also be illustrated by determining their capability to inhibit ^3 HPRZ (pirenzepine, [N-methyl-^3 H]) binding to rat cerebral cortex membranes.
Pirenzepine binds selectively to subtype of muscarinic receptors. Historically the type is named the M1 -site, whereas pirenzepine sensitive site would be more appropriate.
as §1, with “cortex ([…])” for “cortex (0.1-1 g)”, “rats (150-200” for “rats (150-250”, “5-10 s” for “5-10 seconds”, “20 mM” for “20 nM”, “with 2×10” for “with 10”, “in 3×10” for “in 2×10”
The final pellet is homogenized in 20 mM Hepes pH: 7.4 (100 mL per g of original tissue) and used for binding assay. Aliquots of 0.5 mL is added 20 μl of test solution and 25 μL of ^3 HPRZ (1.0 nM, final conc.), mixed and incubated for 60 min. at 20° C. Non-specific binding is determined in triplicate using atropine (1 ,μg/mL, final conc.) as the test substance. After incubation samples are added 5 mL of ice-cold buffer and poured directly onto Whatman GF/C glass fiber filters under suction and immediately washed 2 times with 5 mL of ice-cold buffer. The amount of radioactivity on the filters are determined by conventional liquid scintillation counting. Specific binding is total binding minus non-specific binding.
Test substances are dissolved in 10 mL water, at a concentration of 0.22 mg/mL.
The test value will be given as IC50 (the concentration (nM) of the test substance which inhibits the specific binding of ^3 HPRZ by 50%). IC50 =(applied test substance concentration) x(Cx /Co -Cx)nM where Co is specific binding in control assays and Cx is the specific binding in the test assay. (The calculations assume normal mass-action kinetics).

[3] = ^3 HPRZ 1.0 nM, rat cortex, 60 min. at 20° C., read-out: ^3 HPRZ IC50 (head from b208 on: Pir IC-50)

Row | Compound | IC50 [1] [nM] | IC50 [2] [nM] | IC50 [2, 3] [nM]
1 | CCCSc1nsnc1OC1CN2CCC1CC2 (racemic) [Compound 13, (±)-3-Propylthio-4-(1-azabicyclo[2.2.2]octyl-3-oxy)-1,2,5-thiadiazole] | 1.4 | 3.7 | –
2 | CCCCSc1nsnc1OC1CN2CCC1CC2 (racemic) [Compound 14, (±)-3-Butylthio-4-(1-azabicyclo[2.2.2]octyl-3-oxy)-1,2,5-thiadiazole] | 1.3 | 1.9 | –
3 | FC(F)(F)CCCSc1nsnc1OC1CN2CCC1CC2 (racemic) [Compound 154, (±)-3-(4,4,4-trifluorobutylthio)-4-(1-azabicyclo[2.2.2]octyl-3-oxy)-1,2,5-thiadiazole] | 11 | 6.3 | –
4 | c1cncc(CCCSc2nsnc2OC2CN3CCC2CC3)c1 (racemic) [Compound 155, (±)-3-(3-[3-pyridyl]propylthio)-4-(1-azabicyclo[2.2.2]octyl-3-oxy)-1,2,5-thiadiazole] | 3.4 | 8.8 | –
5 | CCCCc1ccc(COc2nsnc2O[C@@H]2CN3CCC[C@H]2C3)cc1 (relative stereo) [Compound 192, (±)-endo-3-(4-n-Butylbenzyloxy)-4-(1-azabicyclo[3.2.1]octyl-6-oxy)-1,2,5-thiadiazole] | 13 | – | 21
6 | CCCCOc1nsnc1O[C@@H]1CN2CC[C@H]1C2 (relative stereo) [Compound 25, (±)-endo-3-Butyloxy-4-(1-azabicyclo[2.2.1]heptyl-3-oxy)-1,2,5-thiadiazol] | 1.8 | 2.1 | –
7 | CCCCOc1nsnc1O[C@H]1C[C@@H]2CC[C@H]1N2 (relative stereo) [Compound 133, (±)-exo-3-Butyloxy-4-(7-azabicyclo[2.2.1]heptyl-3-oxy)-1,2,5-thiadiazole] | > 1000 | – | > 1000
8 | CCCCOc1nsnc1SCCN(C)C [Compound 36, 3-Butyloxy-4-(2-(dimethylamino)ethylthio)-1,2,5-thiadiazole] | 204 | – | 217
9 | c1csc(CCCSc2nsnc2OC2CN3CCC2CC3)c1 (racemic) [Compound 21, (±)-3-(3-(2-Thienyl)propylthio)-4-(1-azabicyclo[2.2.2]-octyl-3-oxy-1,2,5-thiadiazole] | 4.4 | 4 | –
10 | CCCCOc1nsnc1OC1CNC1 [Compound 50, 3-Butyloxy-4-(3-azetidinyloxy)-1,2,5-thiadiazole] | 92 | – | 351
11 | Fc1ccc(OCCSc2nsnc2OC2CC3CCC2NC3)cc1 (mixture of isomers) [Compound 164, (±)-exo-3-(2-[Fluorophenoxy]ethylthio)-4-(2-azabicyclo[2.2.2]octyl-6-oxy)-1,2,5-thiadiazole] | 5.28 | – | 16.6
12 | CCCCCCOc1nsnc1O[C@@H]1CN2CCC[C@H]1C2 (relative stereo) [Compound 136, (±)-endo-3-Hexyloxy-4-(1-azabicyclo[3.2.1]octyl-6-oxy)-1,2,5-thiadiazole] | 2.73 | – | 6.42
13 | CC(C)(C)c1ccc(COc2nsnc2O[C@@H]2CN3CCC[C@H]2C3)cc1 (relative stereo) [Compound 198, (±)-endo-3-(4-tert-Butylbenzyloxy)-4-(1-azabicyclo[3.2.1]octyl-6-oxy)-1,2,5-thiadiazole] | 31 | – | 120
14 | C1=CC(Oc2nsnc2OC2CN3CCCC2C3)CCC1 (mixture of isomers) [Compound 174, (±)-endo-3-(2-Cyclohexenyloxy)-4-(1-azabicyclo[3.2.1]octyl-6-oxy)-1,2,5-thiadiazole] | 2.1 | – | 12
15 | CCCCCSc1nsnc1O[C@H]1CN2CCC[C@H]1C2 (relative stereo) [Compound 23, (±)-exo-3-Pentylthio-4-(1-azabicyclo[3.2.1]octyl-6-oxy)-1,2,5-thiadiazole] | 55 | – | 18
16 | FC(F)(F)c1ccc(OC(CCSc2nsnc2OC2CN3CCC2CC3)c2ccccc2)cc1 (racemic) [Compound 153, (±)-3-(3-Phenyl-3-[4-trifluoromethylphenoxy]propylthio)-4-(1-azabicyclo[2.2.2]octyl-3-oxy)-1,2,5-thiadiazole] | 597 | – | 205
17 | c1ccc2cc(CCOc3nsnc3O[C@@H]3CN4CCC[C@H]3C4)ccc2c1 (relative stereo) [Compound 178, (±)-endo-3-[2-(2-Napthyl)ethoxy]-4-(1-azabicyclo[3.2.1]octyl-6-oxy)-1,2,5-thiadiazole] | 15 | – | 61
18 | C1C[C@H]2CN(C1)C[C@H]2Oc1nsnc1OCC1CC1 (relative stereo) [Compound 182, (±)-endo-3-(cyclopropylmethoxy)-4-(1-azabicyclo[3.2.1]octyl-6-oxy)-1,2,5-thiadiazole] | 0.6 | – | 3.5
19 | CC(C)CCCOc1nsnc1OC1CN2CCC1CC2 (racemic) [Compound 11, (±)-3-(4-Methylpentyloxy)-4-(1-azabicyclo[2.2.2]octyl-3-oxy)-1,2,5-thiadiazole] | 29 | 33 | –
20 | ClCCCOc1nsnc1OC1CN2CCC1CC2 (racemic) [Compound 116, (±)-3-(3-Chloropropoxy)-4-(1-azabicyclo[2.2.2]octyl-3-oxy)-1,2,5-thiadiazole] | 14 | 33 | –
21 | C1CC1COc1nsnc1OC1CN2CCC1CC2 (racemic) [Compound 106, (±)-3-(Cyclopropylmethoxy)-4-(1-azabicyclo[2.2.2]octyl-3-oxy)-1,2,5-thiadiazole] | 9.5 | 95.4 | –
22 | FC(F)(F)Oc1ccc(COc2nsnc2O[C@@H]2CN3CCC[C@H]2C3)cc1 (relative stereo) [Compound 196, (±)-endo-3-[4-(Trifluoromethoxy)benzyloxy]-4-(1-azabicyclo[3.2.1]octyl-6-oxy)-1,2,5-thiadiazole] | 5.2 | – | 8.8
23 | CCCCSc1nsnc1O[C@@H]1CN2CC[C@@H]1C2 (relative stereo) [Compound 131, (±)exo-3-Butylthio-4-(1-azabicyclo[2.2.1]heptyl-3-oxy)-1,2,5-thiadiazole] | 5.6 | 46 | –
